Tests used:
[1] = target: T1, ADORA3 receptor (CHO cells stably expressing ADORA3 receptor) (Homo sapiens, UniProt P0DMS8); experiment: Effect of compound on intracellular cAMP level by adenosine A3 receptor agonism; format: cell-based; conditions: forskolin-stimulated
T1 construct: expressed in transfected cells
T1 sequence (P0DMS8 1-318): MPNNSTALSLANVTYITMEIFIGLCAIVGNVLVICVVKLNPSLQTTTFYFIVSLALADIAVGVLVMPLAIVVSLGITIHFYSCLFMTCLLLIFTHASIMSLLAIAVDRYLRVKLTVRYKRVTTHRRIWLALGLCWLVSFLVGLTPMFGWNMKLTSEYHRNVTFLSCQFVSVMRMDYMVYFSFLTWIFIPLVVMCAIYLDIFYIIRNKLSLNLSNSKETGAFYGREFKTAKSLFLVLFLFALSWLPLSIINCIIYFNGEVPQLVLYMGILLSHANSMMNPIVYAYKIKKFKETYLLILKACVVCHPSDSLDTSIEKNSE
Method in brief: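 Agonism read as change in forskolin-stimulated cAMP by TR-FRET competition (Eu-cAMP tracer, ULight anti-cAMP antibody). Compound tested as 10 three-fold dilutions on ADORA3-CHO cells in buffer containing rolipram, incubated at 37 °C. Hill fit of % activation against log concentration gives EC50.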

[2] = target: T2, ADORA3 receptor (Homo sapiens, UniProt P0DMS8); experiment: Agonistic effect on adenosine A3 receptor by FLIPR assay (calcium flux assay); format: cell-based; conditions: agonist mode
T2 sequence (P0DMS8 1-318): T1 sequence (P0DMS8 1-318)
Procedure: Example 27: Agonistic Effect of Compound on Adenosine A3 Receptor by FLIPR Assay (Calcium Flux Assay)
First Day: Cell Inoculation
• 1) With regard to ADORA3 receptor, cultured cells were used for inoculation: the culture medium was aspirated and the cells were washed twice with 10 mL of DPBS. 2 mL of 0.05% EDTA-trypsin was added and the cells were incubated at 37° C. for 1 minute. Then 10 mL of the culture medium was added to stop the digestion and the cell suspension was transferred to a 50-mL tapered tube. • 2) The 50-mL tapered tube containing the various cells was centrifuged at 300 g for 5 minutes. • 3) A supernatant was aspirated and no cells should be aspirated. • 4) The cell precipitate was resuspended in 6-8 mL of the culture medium, and then 0.5 mL of the cells were taken out for cell counting by using a Vi-cell XR cell viability analyzer. • 5) The cell suspension was diluted to 1×10^6 cells/mL (20 μL of 20,000 cells per well) in the culture medium and the cells were inoculated into a cell plate (384-well Poly-D-lysine protein-coated plate, Greiner-781946). • 6) The plate was placed in a 37° C./5% CO2 incubator for 16-20 hours. Second Day: • 1) Preparation of 2×Fluo-4 Direct™ uptaking dye • a. Preparation of probenecid solution • 1 mL of FLIPR assay buffer was added to 77 mg of probenecid (provided by Fluo-4 Direct™ calcium assay kit) to be prepared into 250 mM of a probenecid solution. The fresh probenecid solution was used daily. • b. 2×(8 μM) Fluo-4 Direct™ loading dye (per 10 mL)
A vial of the Fluo-4 Direct™ crystal was thawed and then 10 mL of the FLTPR analytical buffer was added to the vial. Then 0.2 mL of 250 mM of a probe solution was added to every 10 mL Fluo-4 Direct™ crystal to a final assay concentration of 2.5 mM. The solution was vortexed and stood for >5 min at a dark place. 2×Fluo-4 Direct™ uptaking dye was freshly prepared daily. • 2) Compound preparation • a. Preparation of compound plate: all reference and test compounds were serially diluted 4-fold in 10 points by using an Echo liquid processor and then 900 nL of the diluted compounds were transferred to a compound plate. • b. 30 μL FLIPR analytical buffer was added to the compound plate and the plate was centrifuged at 300 g for 1 minute. • 3) FLIPR analysis • a. With regard to ADORA3 receptor: firstly, the cell plate was taken out from a culture box. The culture medium was then aspirated and 20 μL of the FLIPR analytical buffer was added. The cell plate was placed in an incubator for 45 minutes and at a room temperature for 15 minutes. • b. To run an experimental solution on […], 10 μL of the FLIPR analytical buffer was transferred from the compound plate to a cell plate, and then the fluorescent signal was read. Then 10 μL of a compound solution was transferred from the compound plate to the cell plate and the fluorescence signal was read. “Max−min” was calculated from Reader 91 to an allowed maximum value. • c. With regard to agonist: activation %=(RLU−LC)/(HC−LC)*100, • wherein RLU=relative light unit, allowed maximum signal was 91; HC=average signal of high concentration agonist; and LC=mean signal of DMSO well. • d. Data were fitted to a model “log (agonist) versus response-variable slope” by using GraphPad Prism 5 to determine an EC50 value. • e. […] 2. Test Result

[3] = Pharmacokinetic test of compound in SD rat; format: in vivo; conditions: SD rats, intragastric administration (IG), cassette dosing
Procedure: Example 28: Pharmacokinetic Test of Compound in SD Rat
The animal species used in this experiment were SD rats. There were 3 animals per group. The rats were dosed in cassette format, i.e., multiple (1-6) different compounds were dosed simultaneously to the same group of the SD rats. The vehicle used for the drug was 5% DMSO+5% Solutl+90% ([…] methylcellulose M450), and the administration route was intragastric administration (IG).

Compound | EC50 [1] | EC50 [2] | AUC_D [3]
CNC(=O)[C@H]1O[C@@H](n2cnc3c(NCc4cc(C)ccn4)nc(-c4cccnc4)nc32)[C@H](O)[C@@H]1O [compound 186, (2S,3S,4R,5R)-3,4-dihydroxyl-N-methyl-5-(6-((4-methylpyridin-2-yl)methylamino)-2-(pyridin-3-yl)-9H-purin-9-yl)-tetrahydrofuran-2-formamide] | < 0.51 nM | 11.8 nM | 786.27 kg·ng·h/mL/mg
CNC(=O)[C@H]1O[C@@H](n2cnc3c(NCc4cccc(C)n4)nc(-c4cncc(Cl)c4)nc32)[C@H](O)[C@@H]1O [compound 112] | 3.53 nM | 44.4 nM | 1790.18 kg·ng·h/mL/mg
CNC(=O)[C@H]1O[C@@H](n2cnc3c(NCc4cccc(Cl)n4)nc(-c4cncc(F)c4)nc32)[C@H](O)[C@@H]1O [compound 227, (2S,3S,4R,5R)-5-(6-(((6-chloropyridin-2-yl)methyl)amino)-2-(5-fluoropyridin-3-yl)-9H-purin-9-yl)-3,4-dihydroxyl-N-methyltetrahydrofuran-2-carboxamide] |  | 3.53 nM | 233.07 kg·ng·h/mL/mg
CNC(=O)[C@H]1O[C@@H](n2cnc3c(NCc4cc(C)ccn4)nc(-c4cncc(F)c4)nc32)[C@H](O)[C@@H]1O [compound 71, (2S,3S,4R,5R)-5-(2-(5-fluoropyridin-3-yl)-6-(((4-methylpyridin-2-yl)methyl)amino)-9H-purin-9-yl)-3,4-dihydroxyl-N-methyltetrahydrofuran-2-carboxamide] | < 0.51 nM | 1.93 nM | 757.44 kg·ng·h/mL/mg
CNC(=O)[C@H]1O[C@@H](n2cnc3c(NCc4cc(C)ccc4F)nc(-c4cncc(C)c4)nc32)[C@H](O)[C@@H]1O [compound 193, (2S,3S,4R,5R)-5-(6-(2-fluoro-5-methylbenzylamino)-2-(5-methylpyridin-3-yl)-9H-purin-9-yl)-3,4-dihydroxyl-N-methyl-tetrahydrofuran-2-formamide] |  | 10.9 nM | 2969.40 kg·ng·h/mL/mg
CCNC(=O)[C@H]1O[C@@H](n2cnc3c(NC)nc(-c4cncc(C)c4)nc32)[C@H](O)[C@@H]1O [compound 72, (2S,3S,4R,5R)-N-ethyl-3,4-dihydroxyl-5-(6-(methylamino)-2-(5-methylpyridin-3-yl)-9H-purin-9-yl)tetrahydrofuran-2-carboxamide] |  | 20.6 nM | 75.08 kg·ng·h/mL/mg
CNC(=O)[C@H]1O[C@@H](n2cnc3c(NCc4cc(OC)ccn4)nc(-c4cncc(Cl)c4)nc32)[C@H](O)[C@@H]1O [compound 296, (2S,3S,4R,5R)-5-(2-(5-chloropyridin-3-yl)-6-(((4-methoxypyridin-2-yl)methyl)amino)-9H-purin-9-yl)-3,4-dihydroxyl-N-methyltetrahydrofuran-2-carboxamide] | 1.28 nM | 53.6 nM | 
CNC(=O)[C@H]1O[C@@H](n2cnc3c(NCc4cc(C)ccc4F)nc(-c4cncc(Cl)c4)nc32)[C@H](O)[C@@H]1O [compound 226, (2S,3S,4R,5R)-5-(2-(5-chloropyridin-3-yl)-6-((2-fluoro-5-methylbenzyl)amino)-9H-purin-9-yl)-3,4-dihydroxyl-N-methyltetrahydrofuran-2-carboxamide] | 1.2 nM | 33.5 nM | 20055.61 kg·ng·h/mL/mg
CNC(=O)[C@H]1O[C@@H](n2cnc3c(NCc4cc(C)cc(C)c4)nc(-c4cncc(C)c4)nc32)[C@H](O)[C@@H]1O [compound 231, (2S,3S,4R,5R)-5-(6-((3,5-dimethylbenzyl)amino)-2-(5-methylpyridin-3-yl)-9H-purin-9-yl)-3,4-dihydroxyl-N-methyltetrahydrofuran-2-carboxamide] |  | 11.2 nM | 17240.04 kg·ng·h/mL/mg
CNC(=O)[C@H]1O[C@@H](n2cnc3c(NCc4cccc(OC)n4)nc(-c4cncc(Cl)c4)nc32)[C@H](O)[C@@H]1O [compound 159] | 4.42 nM | 59.3 nM | 
CNC(=O)[C@H]1O[C@@H](n2cnc3c(NCc4cc(C)ccc4F)nc(-c4cncc(OC)c4)nc32)[C@H](O)[C@@H]1O [compound 194, (2S,3S,4R,5R)-5-(6-(2-fluoro-5-methylbenzylamino)-2-(5-methoxypyridin-3-yl)-9H-purin-9-yl)-3,4-dihydroxyl-N-methyl-tetrahydrofuran-2-formamide] |  | 10.7 nM | 2043.13 kg·ng·h/mL/mg
CNC(=O)[C@H]1O[C@@H](n2cnc3c(NCc4cc(C)ccc4F)nc(-c4cncc(F)c4)nc32)[C@H](O)[C@@H]1O [compound 192, (2S,3S,4R,5R)-5-(6-(2-fluoro-5-methylbenzylamino)-2-(5-fluoropyridin-3-yl)-9H-purin-9-yl)-3,4-dihydroxyl-N-methyl-tetrahydrofuran-2-formamide] |  | 9.24 nM | 3329.08 kg·ng·h/mL/mg
CNC(=O)[C@H]1O[C@@H](n2cnc3c(NCc4cc(C)ccn4)nc(-c4cncc(C)c4)nc32)[C@H](O)[C@@H]1O [compound 190, (2S,3S,4R,5R)-3,4-dihydroxyl-N-methyl-5-(6-((4-methylpyridin-2-yl)methylamino)-2-(5-methylpyridin-3-yl)-9H-purin-9-yl)-tetrahydrofuran-2-formamide] |  | 9.06 nM | 2205.59 kg·ng·h/mL/mg
CNC(=O)[C@H]1OC(n2cnc3c(NCc4cc(C)cc(C)c4)nc(-c4cncc(OC)c4)nc32)[C@H](O)[C@@H]1O (stereo in doubt) [compound 298, (2S,3S,4R,5S)-5-(6-((3,5-dimethylbenzyl)amino)-2-(5-methoxypyridin-3-yl)-9H-purin-9-yl)-3,4-dihydroxyl-N-methyltetrahydrofuran-2-carboxamide] |  | 37 nM | 4423.94 kg·ng·h/mL/mg
CNC(=O)[C@H]1O[C@@H](n2cnc3c(NCc4cc(C)ccc4F)nc(-c4cccnc4)nc32)[C@H](O)[C@@H]1O [compound 191, (2S,3S,4R,5R)-5-(6-(2-fluoro-5-methylbenzylamino)-2-(pyridin-3-yl)-9H-purin-9-yl)-3,4-dihydroxyl-N-methyl-tetrahydrofuran-2-formamide] |  | 5.29 nM | 1183.39 kg·ng·h/mL/mg
CNC(=O)[C@H]1O[C@@H](n2cnc3c(NCc4cc(Cl)ccn4)nc(-c4cncc(Cl)c4)nc32)[C@H](O)[C@@H]1O [compound 184, (2S,3S,4R,5R)-5-(6-((4-chloropyridin-2-yl)methylamino)-2-(5-chloropyridin-3-yl)-9H-purin-9-yl)-3,4-dihydroxyl-N-methyl-tetrahydrofuran-2-formamide] | < 0.51 nM | 13 nM | 

From patent US12655174B2, “Adenosine A3 receptor agonists, preparation methods and uses thereof” (ZHEJIANG VIMGREEN PHARMACEUTICALS, LTD., priority 2020, dated 2026)
